From patent publication US20220041691A1, “METHODS FOR DIAGNOSING OR TREATING POST-TRAUMATIC STRESS DISORDER, AND COMPOSITIONS THEREFOR” (Centre for Addiction and Mental Health, priority 2018, published 2022)
“Also recorded” adds a separate entry of the source.

Assays:
[1] = system: GR and FKBP52 colocalization in primary neurons; experiment: Immunocytochemistry of GR and FKBP52 in primary mouse neurons; assay type: cell-based
Procedure: Cortical tissues from embryonic day (E14) mouse brains were dissected out, incubated with 0.25% trypsin for 15 min at 37° C., and dissociated by mechanical trituration. Neurons were then plated at a desired density onto glass coverslips previously coated with 0.1 mg/ml poly-d-lysine, and grown in Neurobasal medium with 1× Glutamax, 1×B27, 100 U/ml penicillin and 100 μg/ml streptomycin in an incubator (37° C., 5% CO2). Either 10 μM of TAT-GRpep, 10 μM TAT-control peptide or saline were added in culture plates for 45 min in advance at 8 days in vitro (8 DIV).
Cultured neurons were fixed in 4% PFA/4% sucrose, permeabilized with 0.1M PBS containing 0.1% Triton X-100 for 10 min, and blocked for 1 hour with 1% bovine serum albumin in PBS at room temperature. They were incubated with primary antibodies overnight at 4° C. and secondary antibodies for 1 hour at room temperature. The following primary antibodies were used: anti-GR (1:200; Thermo), anti-FKBP51 (1:200; Abcam) and anti-FKBP52 (1:200; Abcam). […] DAPI was used to stain cell nuclei.

GR-FKBP52 complex = experiment: Co-immunoprecipitation of GR-FKBP52 complex in brain of fear-conditioned mice; assay type: in vivo; conditions: fear-conditioned mouse brain, 3 nmol/g i.p; vs TAT alone or saline; p<0.05, n=3
Procedure: (§1) Co-immunoprecipitation and Western blot analyses were performed as previously described.^24, 25, 26 For co-immunoprecipitation, 500˜1000 μg solubilized protein was extracted from whole mouse brain and incubated with primary antibody or control IgG (2˜4 μg) for 4 hrs at 4° C., followed by the addition of 25 μl protein A/G plus agarose (Santa Cruz Biotechnology) for 12 hrs. Pellets were washed, boiled for 5 min in SDS sample buffer and subjected to SDS-PAGE. 50˜100 μg of total protein extract was used as control in each experiment. After transfer of proteins into nitrocellulose, membranes were Western blotted with the primary antibodies. The intensity of protein level was quantified by densitometry (software: ImageLab, Bio-Rad).

fear-conditioned mice = experiment: Cued fear conditioning, systemic (i.p.) peptide delivery; assay type: in vivo, mouse
Procedure: Next, testing was performed to determine whether TAT-GRpep can block the emergence of PTSD-like fear-related behaviours when administrated systemically. Animals underwent five rounds of CS-US pairings followed by 5 days of extinction training before the expression of fear in response to the learned cue was assessed (FIG. 4A). Mice were injected with either TAT-GRpep or TAT intraperitoneally (3 nmol/g, i.p.) one hour before the test.
Furthermore, testing was performed to determine whether disrupting the GR-FKBP51 complex reduced consolidation of cued fear memory. Thus, TAT or TAT-GRpep was administered two hours after the end of fear conditioning training (FIG. 4C), before five consecutive daily extinction sessions of cue exposure without shock. […] This may therefore indicate a potential approach to both preventing and treating PTSD-like behaviour in the aftermath of trauma, for example.
Animals were first given a five-minute habituation to the apparatus (Habitest, Colbourne Instruments). Then, animals were exposed to 30 seconds of cue exposure (an in-house white light), which co-terminated with one second of foot-shock (0.5 mA). The cue exposure and foot-shock were repeated five times, intermitted by 5-minute inter-trial intervals. Following the conditioning, animals were subjected to 2-5 days of extinction before the assessment of their cued fear memory, which consisted of 15 rounds of 30-second cue exposure, with 30-second inter-trial intervals (adapted from Andero et al.).^48
The expression of fear (in a different context from training) was assessed 24 hours after the last extinction training. The assessment consisted of a three-minute period of habituation (absence of CS) and a sequent three-minute trial of conditioned cues. The duration of freezing behaviors was recorded by a blinded experimenter. Peptide treatment was either administered 2 hours after the conditioning or 30 minutes before the behavioral assessment.

[2] = system: GR phosphorylation at S211; experiment: Western blot of GR phosphorylation at S211 in brain lysate of fear-conditioned mice; assay type: in vivo, mouse; conditions: brain lysate of fear-conditioned mice injected with TAT or TAT-GRpep; p<0.05, n=3
Excerpt: To further investigate these findings, surface plasmon resonance (SPR) was used to estimate association and dissociation rates between GR and FKBP51. […] Thus, GR S211 phosphorylation seems to reduce GR affinity for FKBP51. Conversely, disruption of the GR-FKBP51 complex with TAT-GRpep could increase GR S211 phosphorylation, which is what was observed when comparing fear-conditioned mice treated with TAT-GRpep vs. TAT control or no treatment (FIG. 5 I-J).
as §1, with “Bio-Rad). […]” for “Bio-Rad).”

With “GRKKRRQRRRPQSPWRSDLLIDENCLL (Amino Acid Sequence of TAT-GRpep Peptide)” the “nuclear GR levels” value ([1]; primary mouse neuron cultures, confocal microscope) was “markedly increased nuclear GR levels”, the “nuclear GR-FKBP52 colocalization” value ([1]; primary neurons 8 DIV, 10 μM, 45 min) was “marked increase in nuclear GR-FKBP52 colocalization” and the “colocalization between GR and FKBP52” value ([1]; primary neurons 8 DIV, 10 μM, 45 min, vs saline and control peptide) was “significantly more colocalization between GR and FKBP52; also recorded: co-localized more”. The “GR-FKBP52 complex (FKBP52 co-immunoprecipitated by GR antibody)” value (GR-FKBP52 complex) was “more FKBP52 was co-immunoprecipitated by GR antibody; also recorded: significant increases in GR-FKBP52 complex levels”, the “duration of freezing with the CS” value (fear-conditioned mice; 3 nmol/g i.p. one hour before the test, after 5 days of extinction training, three-minute cue trial, p<0.05) was 34.1 ± 6.7 s and the “freezing behavior during habituation period without CS” value (fear-conditioned mice; 3 nmol/g i.p. one hour before the test, TAT-GRpep vs control group, p=NS) was “no difference in freezing behavior”. The “cued freezing behaviours (FIG. 4D)” value (fear-conditioned mice; peptide administered after fear conditioning, before extinction sessions, p<0.05) was “reduced cued freezing behaviours”, the “duration of freezing with the CS (consolidation of cued fear memory)” value (fear-conditioned mice; peptide administered two hours after end of fear conditioning, tested 24 hours after last of five daily extinction sessions, p<0.05) was 55.9 ± 3.3 s and the “GR phosphorylation at S211” value [2] was “able to block the decrease of GR phosphorylation at S211; also recorded: blocked the decrease in GR S211 phosphorylation”.
